Measured values taken from patent US9260439B2, “Dihydropyrrolopyrimidine derivatives” (PFIZER INC., priority 2014, dated 2016).

Target: full-length PI3Kα (full-length p110α/p85α) (Homo sapiens (Human), UniProt P42336)
Assay: PI3KA_FL fluorescence polarization kinase assay (Ki)
Assay type: biochemical
Conditions: 41 μM ATP
From the text: Enzyme Production for Biochemical Assays: 1) PI3Kα Complex (Full Length p110α and p85α)(“PI3KA_FL”)
Genes encoding for full length p110α and p85α subunits of PI3Kα complex were subcloned from existing constructs into pFASTBAC Dual vector (Life Technologies, Carlsbad, Calif.) using standard cloning procedures. Gene encoding p110α subunit was subcloned into polyhedrine promoter while gene encoding p85α subunit was subcloned into p10 promoter. Additionally, sequence encoding for histidine tag and Tobacco Etch Virus (“TEV”) cleavage site preceded p110α ORF (Open Reading Frame). Recombinant baculovirus was generated using Bac-to-Bac protocol (Life Technologies, Carlsbad, Calif.) and large scale expression was conducted in Sf21 (Life Technologies, Carlsbad, Calif.) cells at a multiplicity of infection (“MOI”)=1 for 72 hours. Cells were lyzed in 50 mM Tris pH 8.0, 250 mM NaCl, 5% glycerol, 0.25 mM TCEP, and 20 mM imidazole. The PI3Kα complex was purified from clarified supernatant using Immobilized Metalo Affinity Chromatography (“IMAC”). The protein was eluted from the column using 50 mM Tris pH 8.0, 200 mM NaCl, 5% glycerol, 0.25 mM TCEP, and 200 mM imidazole, and further desalted into 50 mM Tris pH 8.0, 20 mM NaCl, and 0.25 mM TCEP prior to loading on MonoQ sepharose (GE Healthcare, Piscataway, N.J.). PI3Kα complex was eluted from MonoQ sepharose over 20 column volumes using 0-30% gradient of buffer B (50 mM Tris pH 8.0, 1 M NaCl, and 0.25 mM TCEP). The peak fractions were pulled together and loaded on Superdex 200 26/60 SEC column equilibrated in 50 mM Tris pH 8.0, 200 mM NaCl, and 0.5 mM TCEP. […] Purity and integrity of the complex was confirmed using LCMS, analytical SEC and SDS-PAGE (sodium dodecyl sulfate polyacrylamide gel electrophoresis) analysis.
The biochemical assays of kinase activity of full-length PI3Kα (full-length p110α/p85a) or truncated PI3Kα (p110α/iSH2 p85a) were conducted using a fluorescence polarization format similar to the procedure of Yuan J., et al., (2011) “PF-04691502, a Potent and Selective Oral Inhibitor of PI3K and mTOR Kinases with Antitumor Activity”, Mol Cancer Ther. 10, 2189-2199. The enzymatic reactions were conducted in 50 μL volumes in 96-well plates. The reactions contained human recombinant PI3Kα (2 nM full-length p110α/p85α or 0.5 nM p110α/iSH2 p85) and 30 μM phosphatidylinositol 4,5-bisphosphate (“PIP2”) (Cayman Chemical Company, Ann Arbor, Mich.) and were sonicated for 1 minute prior to adding PI3Kα enzyme (PI3KA_Act or PI3KA_FL), DMSO or test compound (12-point 3-fold serial dilution, 3 μM top dose, 2° A) DMSO final concentration), 5 mM MgCl2, 50 mM HEPES pH 7.4, 150 mM NaCl, 1 mM DTT ((2S,3S)-1,4-bis(sulfanyl)butane-2,3-diol), and 0.05% 3-[(3-cholamidopropyl)dimethylammonio]-1-propanesulfonate (“CHAPS”). […] The reactions were incubated for 30 min at room temperature, stopped with EDTA pH 8 (10 mM final concentration). In a detection plate, 15 μL of detector/probe mixture, containing 480 nM GST-Grp1 PH domain protein (University of Dundee, Dundee, UK) and 12 nM carboxytetramethylrhodamine (“TAMRA”)-tagged fluorescent phosphatidylinositol (3,4,5)-triphosphate (“PIP3”) (Echelon Biosciences, Inc., Salt Lake City, Utah) in assay buffer, was mixed with 15 μL of kinase reaction mixture. The plate was shaken for 30 minutes and fluorescence polarization values were measured on an LJL Analyst HT plate reader (Molecular Devices, Sunnyvale, Calif.). […] The inhibition constants (Ki) were calculated by fitting fluorescence polarization values, corresponding to initial reaction rates, to the Morrison equation (Morrison, J. F. (1969) Kinetics of the reversible inhibition of enzyme catalysed reactions by tight-binding inhibitors. Biochim. Biophys. Acta 185, 269-286) for tight-binding competitive inhibitors using non-linear regression method (GraphPad Prism, GraphPad Software, San Diego, Calif.).

Sequence of full-length PI3Kα (full-length p110α/p85α) (P42336 whole entry): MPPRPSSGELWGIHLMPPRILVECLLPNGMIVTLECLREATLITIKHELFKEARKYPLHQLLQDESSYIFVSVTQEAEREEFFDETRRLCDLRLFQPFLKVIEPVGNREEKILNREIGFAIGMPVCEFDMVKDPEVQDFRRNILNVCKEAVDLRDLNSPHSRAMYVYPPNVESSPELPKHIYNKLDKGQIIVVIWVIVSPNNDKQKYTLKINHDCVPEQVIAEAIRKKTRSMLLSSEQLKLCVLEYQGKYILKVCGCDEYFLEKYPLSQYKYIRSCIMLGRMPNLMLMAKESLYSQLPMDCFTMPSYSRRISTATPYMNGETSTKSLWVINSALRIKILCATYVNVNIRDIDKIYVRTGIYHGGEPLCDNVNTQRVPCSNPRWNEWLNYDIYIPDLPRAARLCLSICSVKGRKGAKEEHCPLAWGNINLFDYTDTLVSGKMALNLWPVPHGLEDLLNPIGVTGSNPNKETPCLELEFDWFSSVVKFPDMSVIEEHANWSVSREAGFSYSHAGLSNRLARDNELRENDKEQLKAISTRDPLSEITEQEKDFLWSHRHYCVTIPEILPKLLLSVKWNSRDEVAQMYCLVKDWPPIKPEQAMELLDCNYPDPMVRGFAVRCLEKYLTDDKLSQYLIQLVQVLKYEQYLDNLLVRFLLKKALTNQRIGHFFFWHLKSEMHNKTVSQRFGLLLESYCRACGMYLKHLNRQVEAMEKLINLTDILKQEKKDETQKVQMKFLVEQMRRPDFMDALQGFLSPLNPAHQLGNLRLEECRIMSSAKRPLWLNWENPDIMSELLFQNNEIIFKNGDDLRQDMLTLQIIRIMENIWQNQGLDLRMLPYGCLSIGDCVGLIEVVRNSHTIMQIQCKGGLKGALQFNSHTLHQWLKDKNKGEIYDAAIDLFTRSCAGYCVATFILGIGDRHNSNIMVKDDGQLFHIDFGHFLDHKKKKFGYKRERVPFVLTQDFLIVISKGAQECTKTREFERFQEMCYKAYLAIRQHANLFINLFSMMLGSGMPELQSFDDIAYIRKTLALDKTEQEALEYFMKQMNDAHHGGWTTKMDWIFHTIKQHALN
Sequence of full-length PI3Kα (full-length p110α/p85α) (P27986 whole entry partner): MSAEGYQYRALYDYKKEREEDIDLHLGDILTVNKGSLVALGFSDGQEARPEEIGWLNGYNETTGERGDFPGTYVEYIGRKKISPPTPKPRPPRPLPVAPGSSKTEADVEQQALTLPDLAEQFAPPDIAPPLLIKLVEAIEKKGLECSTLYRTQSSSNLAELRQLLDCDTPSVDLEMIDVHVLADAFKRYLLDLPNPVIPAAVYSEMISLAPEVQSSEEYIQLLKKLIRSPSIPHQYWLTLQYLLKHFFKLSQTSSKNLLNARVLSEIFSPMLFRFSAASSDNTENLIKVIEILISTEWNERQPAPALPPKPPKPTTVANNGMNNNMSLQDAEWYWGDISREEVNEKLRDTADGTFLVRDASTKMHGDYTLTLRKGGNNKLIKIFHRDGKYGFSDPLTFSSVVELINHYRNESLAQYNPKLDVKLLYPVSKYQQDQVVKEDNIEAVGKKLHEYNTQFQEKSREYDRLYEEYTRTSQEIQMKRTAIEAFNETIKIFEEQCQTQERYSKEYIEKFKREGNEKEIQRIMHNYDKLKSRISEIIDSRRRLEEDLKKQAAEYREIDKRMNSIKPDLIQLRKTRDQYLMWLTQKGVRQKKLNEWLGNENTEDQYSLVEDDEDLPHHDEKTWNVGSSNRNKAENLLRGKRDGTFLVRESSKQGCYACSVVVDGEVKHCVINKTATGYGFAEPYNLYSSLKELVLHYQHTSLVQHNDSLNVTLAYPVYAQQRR

SMILES	PI3KA_FL Ki [nM]	PI3KA_FL Ki (nM)
Nc1ncc(-c2nc(N3CCOCC3)nc3c2CCN3C2CCC(F)(F)C2)cn1 (racemic) [Example 19]	0.528	–
Nc1ncc(-c2nc(N3CCOCC3)nc3c2CCN3C2CCCOC2)cn1 (racemic) [Example 37]	7.189	–
CC(=O)N1CCCC(N2CCc3c(-c4cnc(N)nc4)nc(N4CCOCC4)nc32)C1 (racemic) [Example 51]	18.619	–
CC(=O)N1C[C@@H](F)[C@H](N2CCc3c(-c4cnc(N)nc4)nc(N4CCOCC4)nc32)C1 (single isomer, unassigned) [Example 66]	0.926	–
CC(=O)N1C[C@H](F)[C@@H](N2CCc3c(-c4cnc(N)nc4)nc(N4CCOCC4)nc32)C1 (single isomer, unassigned) [Example 67]	1.899	–
CC(=O)N1C[C@@H](N2CCc3c(-c4cnc(N)nc4)nc(N4CCOCC4)nc32)[C@@H](F)C1 (single isomer, unassigned) [Example 75]	1.106	–
C[C@H]1COCCN1c1nc(-c2cnc(N)nc2)c2c(n1)N([C@@H]1CCC(F)(F)C1)CC2 (single isomer, unassigned) [Example 88]	0.674	–
C[C@H]1COCCN1c1nc(-c2cnc(N)nc2)c2c(n1)N([C@H]1CCC(F)(F)C1)CC2 (single isomer, unassigned) [Example 89]	1.247	–
CC(=O)N1CC[C@@H](N2CCc3c(-c4cnc(N)nc4)nc(N4CCOCC4)nc32)C1 [Example 11]	4.095	–
CC(=O)N1CC[C@H](N2CCc3c(-c4cnc(N)nc4)nc(N4CCOCC4)nc32)C1 [Example 12]	1.130	–
Nc1ncc(-c2nc(N3CCOCC3)nc3c2CCN3C2CCC2)cn1 [Example 14]	6.843	–
CS(=O)(=O)[C@H]1C[C@H](N2CCc3c(-c4cnc(N)nc4)nc(N4CCOCC4)nc32)C1 [Example 15]	0.856	–
Nc1ncc(-c2nc(N3CCOCC3)nc3c2CCN3[C@H]2CCOC2)cn1 [Example 16]	1.423	–
Nc1ncc(-c2nc(N3CCOCC3)nc3c2CCN3[C@@H]2CCOC2)cn1 [Example 17]	4.273	–
Nc1ncc(-c2nc(N3CCOCC3)nc3c2CCN3C2CCOCC2)cn1 [Example 18]	2.706	–
CC(=O)N(C)[C@H]1C[C@H](N2CCc3c(-c4cnc(N)nc4)nc(N4CCOCC4)nc32)C1 [Example 21]	5.393	–
CN([C@H]1C[C@H](N2CCc3c(-c4cnc(N)nc4)nc(N4CCOCC4)nc32)C1)S(C)(=O)=O [Example 22]	–	≦0.229 nM
CC(=O)N[C@H]1C[C@@H](N2CCc3c(-c4cnc(N)nc4)nc(N4CCOCC4)nc32)C1 [Example 23]	9.696	–
Nc1ncc(-c2nc(N3CCOCC3)nc3c2CCN3[C@H]2C[C@H](O)C2)cn1 [Example 24]	0.961	–
Nc1ncc(-c2nc(N3CCOCC3)nc3c2CCN3[C@H]2CCN(C(=O)CO)C2)cn1 [Example 25]	–	≦0.229 nM
Nc1ncc(-c2nc(N3CCOCC3)nc3c2CCN3[C@H]2CCN(S(N)(=O)=O)C2)cn1 [Example 26]	0.423	–
CNC(=O)N1CC[C@H](N2CCc3c(-c4cnc(N)nc4)nc(N4CCOCC4)nc32)C1 [Example 27]	1.025	–
COC(=O)N1CC[C@H](N2CCc3c(-c4cnc(N)nc4)nc(N4CCOCC4)nc32)C1 [Example 28]	0.521	–
CC(=O)N[C@H]1C[C@H](N2CCc3c(-c4cnc(N)nc4)nc(N4CCOCC4)nc32)C1 [Example 29]	5.828	–
C[C@H](O)C(=O)N1CC[C@H](N2CCc3c(-c4cnc(N)nc4)nc(N4CCOCC4)nc32)C1 [Example 30]	1.188	–

SMILES	PI3KA_FL Ki [nM]	PI3KA_FL Ki (nM)
CC(C)[C@@H](O)C(=O)N1CC[C@H](N2CCc3c(-c4cnc(N)nc4)nc(N4CCOCC4)nc32)C1 [Example 31]	–	≦0.229 nM
CC(C)[C@H](O)C(=O)N1CC[C@H](N2CCc3c(-c4cnc(N)nc4)nc(N4CCOCC4)nc32)C1 [Example 32]	0.841	–
CC(=O)N1CC(N2CCc3c(-c4cnc(N)nc4)nc(N4CCOCC4)nc32)C1 [Example 33]	5.195	–
CO[C@H]1CC[C@H](N2CCc3c(-c4cnc(N)nc4)nc(N4CCOCC4)nc32)CC1 [Example 36]	19.031	–
C[C@]1(O)C[C@H](N2CCc3c(-c4cnc(N)nc4)nc(N4CCOCC4)nc32)C1 [Example 39]	0.738	–
CO[C@H]1C[C@H](N2CCc3c(-c4cnc(N)nc4)nc(N4CCOCC4)nc32)C1 [Example 40]	0.416	–
C[C@@H](O)C(=O)N1CC[C@H](N2CCc3c(-c4cnc(N)nc4)nc(N4CCOCC4)nc32)C1 [Example 41]	1.376	–
CC(=O)N[C@H]1C(C)(C)[C@@H](N2CCc3c(-c4cnc(N)nc4)nc(N4CCOCC4)nc32)C1(C)C [Example 42]	7.677	–
Nc1ncc(-c2nc(N3CCOCC3)nc3c2CCN3[C@H]2CCN(C=O)C2)cn1 [Example 43]	1.310	–
C[C@]1(O)C[C@@H](N2CCc3c(-c4cnc(N)nc4)nc(N4CCOCC4)nc32)C1 [Example 44]	1.965	–
Nc1ncc(-c2nc(N3CCOCC3)nc3c2CCN3[C@H]2CCCOC2)cn1 [Example 47]	3.320	–
Nc1ncc(-c2nc(N3CCOCC3)nc3c2CCN3[C@@H]2CCCOC2)cn1 [Example 48]	3.543	–
CN([C@H]1C[C@@H](N2CCc3c(-c4cnc(N)nc4)nc(N4CCOCC4)nc32)C1)S(C)(=O)=O [Example 49]	0.722	–
CC(=O)N[C@@H]1CC[C@H]1N1CCc2c(-c3cnc(N)nc3)nc(N3CCOCC3)nc21 [Example 50]	18.596	–
CC(=O)N1C[C@@H](N2CCc3c(-c4cnc(N)nc4)nc(N4CCOCC4)nc32)[C@@H](C)C1 [Example 52]	2.799	–
Nc1ncc(-c2nc(N3CCOCC3)nc3c2CCN3[C@H]2C[C@H](C(N)=O)C2)cn1 [Example 53]	0.774	–
CC(=O)N1CCC[C@H](N2CCc3c(-c4cnc(N)nc4)nc(N4CCOCC4)nc32)C1 [Example 54]	8.634	–
CC(=O)N1CCC[C@@H](N2CCc3c(-c4cnc(N)nc4)nc(N4CCOCC4)nc32)C1 [Example 55]	3.904	–
CC(=O)N1C[C@H](C(F)F)[C@H](N2CCc3c(-c4cnc(N)nc4)nc(N4CCOCC4)nc32)C1 [Example 56]	35.745	–
NC(=O)N1CC[C@H](N2CCc3c(-c4cnc(N)nc4)nc(N4CCOCC4)nc32)C1 [Example 58]	0.794	–
CC(=O)N1C[C@@H](C(F)F)[C@@H](N2CCc3c(-c4cnc(N)nc4)nc(N4CCOCC4)nc32)C1 [Example 60]	27.752	–
Nc1ncc(-c2nc(N3CCOCC3)nc3c2CCN3C2CN(C=O)C2)cn1 [Example 62]	0.888	–
CC(=O)N1C[C@@H](N2CCc3c(-c4cnc(N)nc4)nc(N4CCOCC4)nc32)[C@H](C(F)F)C1 [Example 63]	6.612	–
Nc1ncc(-c2nc(N3CCOCC3)nc3c2CCN3[C@H]2C[C@@H](F)C2)cn1 [Example 64]	0.508	–
Nc1ncc(-c2nc(N3CCOCC3)nc3c2CCN3[C@H]2C[C@H](F)C2)cn1 [Example 65]	–	≦0.229 nM
